Measured values taken from ChEMBL document CHEMBL1201862, “PubChem BioAssay data set” (2004).
Each block holds one molecule with its values, some of them ahead of it. The source made the active and inactive calls.

Experiments:
[1] = target: T1, Estrogen receptor beta (Homo sapiens, UniProt Q92731); test: ERβ–SRC-3 coactivator interaction inhibitors, confirmation, orthogonal assay, biochemical, ELISA, streptavidin-HRP readout (AID 1060)
[2] = target: Protein Tat (Human immunodeficiency virus type 1 group M subtype B (isolate HXB2)(HIV-1), UniProt P04608); assay type: functional;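 also: tat binding to TAR RNA read out by fluorescence polarization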
Sequence of Protein Tat (P04608 whole entry): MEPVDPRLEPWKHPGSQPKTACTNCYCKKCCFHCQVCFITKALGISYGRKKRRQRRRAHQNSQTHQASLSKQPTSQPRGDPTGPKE

[3] = target: Ubiquitin carboxyl-terminal hydrolase BAP1 (Homo sapiens, UniProt Q92560); test: BAP1 deubiquitinase inhibitors, dose response, biochemical (AID 714); assay type: functional
Sequence of Ubiquitin carboxyl-terminal hydrolase BAP1 (Q92560 whole entry): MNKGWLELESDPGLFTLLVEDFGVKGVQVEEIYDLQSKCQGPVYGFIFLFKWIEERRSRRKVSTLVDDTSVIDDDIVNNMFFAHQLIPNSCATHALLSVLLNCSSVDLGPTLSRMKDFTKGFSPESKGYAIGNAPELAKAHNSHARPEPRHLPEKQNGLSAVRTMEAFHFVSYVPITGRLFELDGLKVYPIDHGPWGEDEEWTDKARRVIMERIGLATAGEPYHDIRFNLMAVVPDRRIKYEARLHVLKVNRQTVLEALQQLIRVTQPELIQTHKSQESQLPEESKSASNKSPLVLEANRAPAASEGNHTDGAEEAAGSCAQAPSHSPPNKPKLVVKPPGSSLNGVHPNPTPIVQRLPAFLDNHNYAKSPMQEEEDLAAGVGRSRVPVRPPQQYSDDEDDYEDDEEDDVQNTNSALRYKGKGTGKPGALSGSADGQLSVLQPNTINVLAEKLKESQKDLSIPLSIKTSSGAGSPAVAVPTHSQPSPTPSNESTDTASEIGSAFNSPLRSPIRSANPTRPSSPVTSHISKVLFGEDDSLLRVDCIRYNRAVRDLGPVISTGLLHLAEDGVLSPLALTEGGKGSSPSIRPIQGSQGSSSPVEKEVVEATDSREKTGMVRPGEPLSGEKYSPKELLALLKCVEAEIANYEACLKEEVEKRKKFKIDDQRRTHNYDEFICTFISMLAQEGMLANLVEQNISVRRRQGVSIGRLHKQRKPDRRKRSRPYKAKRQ

[4] = target: T1, Estrogen receptor beta
[5] = target: Luciferin 4-monooxygenase (Photinus pyralis, UniProt P08659); test: firefly luciferase enzyme inhibitors, dose response, biochemical, luminescence (AID 1891)
Sequence of Luciferin 4-monooxygenase (P08659 whole entry): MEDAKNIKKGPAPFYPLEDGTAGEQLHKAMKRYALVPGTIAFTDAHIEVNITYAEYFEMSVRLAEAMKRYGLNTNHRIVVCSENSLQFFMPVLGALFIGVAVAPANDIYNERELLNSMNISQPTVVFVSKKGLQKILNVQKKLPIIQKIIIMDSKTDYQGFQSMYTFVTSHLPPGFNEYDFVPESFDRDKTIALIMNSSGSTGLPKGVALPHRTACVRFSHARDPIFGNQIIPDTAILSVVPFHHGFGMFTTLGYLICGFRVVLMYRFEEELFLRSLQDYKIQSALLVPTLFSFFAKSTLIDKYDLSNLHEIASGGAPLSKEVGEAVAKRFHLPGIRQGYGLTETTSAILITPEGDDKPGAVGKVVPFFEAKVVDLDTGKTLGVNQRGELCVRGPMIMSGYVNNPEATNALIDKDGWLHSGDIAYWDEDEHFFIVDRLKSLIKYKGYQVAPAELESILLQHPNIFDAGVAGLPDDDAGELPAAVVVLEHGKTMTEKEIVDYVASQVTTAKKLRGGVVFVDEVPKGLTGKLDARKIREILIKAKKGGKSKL

[6] = Luminescence Cell-Based Dose Confirmation HTS to Identify Inhibitors of Platelet Dense Granule Release. [Related pubchem assays: 1663 (Primary HTS), 1678 (Summary of Project)]; assay type: functional
[7] = Fluorescence Cell-Based Dose Response to Identify Inhibitors of Thrombin Receptor-Activating Peptide SFLLRN-Mediated P-Selectin Induction on Platelets. [Related pubchem assays: 1663 (Primary HTS), 1889 (retest at dose ), 1891 (counterscreen), 1678 (Project Summary)]; assay type: functional
[8] = target: Cytochrome P450 3A4 (Homo sapiens, UniProt P08684);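 also: CYP3A4 tested as one member of a cytochrome P450 panel screen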
Sequence of Cytochrome P450 3A4 (P08684 whole entry): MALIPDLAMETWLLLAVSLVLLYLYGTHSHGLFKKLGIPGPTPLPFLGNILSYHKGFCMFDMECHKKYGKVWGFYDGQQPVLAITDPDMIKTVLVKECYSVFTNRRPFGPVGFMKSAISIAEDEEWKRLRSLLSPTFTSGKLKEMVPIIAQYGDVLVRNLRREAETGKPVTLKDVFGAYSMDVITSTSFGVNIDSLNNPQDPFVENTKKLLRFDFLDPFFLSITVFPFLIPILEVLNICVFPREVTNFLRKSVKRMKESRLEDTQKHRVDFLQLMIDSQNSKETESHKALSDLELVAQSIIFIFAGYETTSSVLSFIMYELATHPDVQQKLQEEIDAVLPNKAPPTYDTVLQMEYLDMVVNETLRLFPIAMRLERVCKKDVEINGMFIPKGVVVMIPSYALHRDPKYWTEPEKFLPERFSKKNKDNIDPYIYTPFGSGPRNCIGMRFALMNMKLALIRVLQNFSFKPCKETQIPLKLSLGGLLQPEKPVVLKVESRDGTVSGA

[9] = target: Heat shock protein HSP90 (Homo sapiens, UniProt P07900+P08238); test: tumor Hsp90 inhibitor potency, dose response (AID 712); assay type: functional
[10] = P. falciparum Dd2 growth inhibitors, dose response, SYBR Green, cherry-picked samples (AID 1159567); assay type: functional, cell-based
[11] = HepG2 cell cytotoxicity, dose response, cytotoxicity control, cherry-picked samples (AID 1159577); assay type: functional, cell-based
[12] = P. falciparum Dd2 growth inhibitors, dose response, SYBR Green, dry powder samples, set 9 (AID 1159568); assay type: functional, cell-based
[13] = P. falciparum Dd2 growth inhibitors, dose response, SYBR Green, dry powder samples, set 4 (AID 1159572); assay type: functional, cell-based
[14] = P. falciparum Dd2 growth inhibitors, dose response, SYBR Green, dry powder samples (AID 1159566); assay type: functional, cell-based;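 also: potency for growth inhibition with lower SYBR green DNA signal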
[15] = P. falciparum ATP4 D1247Y mutant growth inhibitors, dose response, NITD609-resistant line, SYBR Green, dry powder (AID 1159571); assay type: functional, cell-based;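 also: parasites synchronized at ring stage by sorbitol before testing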
[16] = P. falciparum 3D7-ScDHODH growth inhibitors, dose response, SYBR Green, dry powder samples (AID 1159570); assay type: functional, cell-based;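 also: parasite growth measured after 72 hours of compound exposure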
[17] = HepG2 cell cytotoxicity, dose response, cytotoxicity control, plate reader, dry powder samples (AID 1159569); assay type: functional, cell-based;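 also: inhibitor potency with signal falling toward the positive control level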
[18] = P. falciparum Dd2 blood-stage growth inhibition, dose response, SYBR Green fluorescence, erythrocytes, dry powder, set 2 (AID 1159574); assay type: functional, cell-based
[19] = Glucagon-like peptide 1 release potency, NCI-H716 cell line, dose-response, half-maximal inhibitory concentration (AID 1117344); assay type: functional, cell-based
[20] = half-maximal inhibitory concentration for glucagon-like peptide-1 release, STC-1 cell line, dose-response (AID 1117345); assay type: functional, cell-based

T1 sequence (Q92731 whole entry): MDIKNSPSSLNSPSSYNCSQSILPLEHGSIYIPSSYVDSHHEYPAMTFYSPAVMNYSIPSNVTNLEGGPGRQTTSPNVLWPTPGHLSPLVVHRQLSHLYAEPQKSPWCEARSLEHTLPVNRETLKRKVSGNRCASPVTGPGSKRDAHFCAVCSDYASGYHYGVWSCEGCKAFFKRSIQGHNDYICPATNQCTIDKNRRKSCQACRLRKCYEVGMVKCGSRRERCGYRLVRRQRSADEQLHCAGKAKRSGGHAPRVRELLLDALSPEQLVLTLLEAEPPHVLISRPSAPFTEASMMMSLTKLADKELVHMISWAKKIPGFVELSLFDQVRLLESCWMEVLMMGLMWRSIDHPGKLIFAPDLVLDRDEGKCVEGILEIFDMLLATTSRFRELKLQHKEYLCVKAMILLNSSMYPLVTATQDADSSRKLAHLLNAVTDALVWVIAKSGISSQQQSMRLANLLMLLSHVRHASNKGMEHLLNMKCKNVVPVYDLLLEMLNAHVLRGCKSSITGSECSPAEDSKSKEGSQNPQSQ

IC50 [1]: > 50 µM (not active) | IC50 [2]: > 100 µM (active) | IC50 [3]: 22.6 µM (active) | IC50 [4]: > 50 µM (not active)
Compound: Cc1ccc(-c2nc3s/c(=C\c4ccco4)c(=O)n3n2)cc1

Compound: CCC(CC)=N/N=C/c1c(O)n(CC)c2cc(C3=NNC(=O)CC3)ccc12
EC50 [5]: > 112 µM (not active) | EC50 [6]: 2.71 µM (active) | EC50 [7]: < 300 nM (active)

AC50 [8]: 6.31 µM (inconclusive) | IC50 [9]: 13.4314 µM
Compound: CN(c1ccccc1)c1ccc(/C=c2\s/c(=C(/C#N)C(=O)C(C)(C)C)n(Cc3ccco3)c2=O)cc1

Compound: COc1ccccc1NC(=O)N1C[C@@H]2N[C@H](C1)[C@@H]2c1ccc(/C=C/c2ccccc2)cc1
AC50 [10]: 1.96 µM (active) | AC50 [11]: 9.74 µM (active) | AC50 [12]: 8.73 µM (active)

Compound: CCC(=O)N1CCC2(CC1)CN(C(C)=O)[C@@H](CO)c1[nH]c3cc(OC)ccc3c12
AC50 [13]: 20.1 µM (active)

Compound: COc1ccc(S(=O)(=O)N(C)C[C@@H]2OCc3ccccc3-c3c(n(C)c4ccccc34)C(=O)N([C@@H](C)CO)C[C@@H]2C)cc1
AC50 [14]: 79.4 nM (active) | AC50 [15]: 115 nM (active) | AC50 [10]: 0.689 µM (active) | AC50 [16]: 126 nM (active) | AC50 [17]: 84.3 µM (active) | AC50 [18]: 853 nM (active)

Compound: Cc1cc(O)c(C(C)C)cc1Cl [CHLOROTHYMOL]
IC50 [19]: 26.5 µM (inactive) | IC50 [20]: 14.1 µM (inactive)
